{"source": "paper PMC9578396", "about": "“Intrinsic Antibacterial Activity of Xeruborbactam In Vitro: Assessing Spectrum and Mode of Action” (Antimicrobial Agents and Chemotherapy, 2022)", "key": {"[1]": {"tested_on": "Pseudomonas aeruginosa", "test": "Broth microdilution MIC (CLSI), Pseudomonas aeruginosa", "assay_type": "cell-based", "settings": "Pseudomonas aeruginosa, strain PAM1154 (Fig. 6); read-out: MIC", "outline": "(§1)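 MICs by CLSI broth microdilution in in-house panels. Strains tested were engineered strains carrying porin and efflux mutation combinations, KPC-producing clinical isolates and derivatives cured of KPC plasmids, and KPC-producing clinical isolates enriched for porin mutations.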"}, "[2]": {"tested_on": "K. pneumoniae strain KPM1026a", "test": "Fluorescence microscopy, cellular morphology", "assay_type": "cell-based, Klebsiella pneumoniae", "settings": "treated at 1× and 2× MIC, 1 to 2 h, 30°C", "description": "(§2) Single colonies of K. pneumoniae strain KPM1026a, A. baumannii strain ATCC 17978, and P. aeruginosa strain PAM1154 were picked from LB agar plates, inoculated in cation-adjusted Mueller-Hinton broth (CA-MHB), and incubated overnight at 30°C with rolling. Overnight cultures were diluted into fresh CA-MHB and incubated at 30°C, with rolling, until they reached an OD600 of ≈0.12 to 0.15 (equivalent to ~2 × 10^8 CFU/mL). Samples were then treated with compounds and incubated at 30°C, with rolling. After 1 or 2 h of treatment, cells were collected and stained with a dye mix containing FM4-64 (1 μg/mL), DAPI (4′,6-diamidino-2-phenylindole) (2 μg/mL), and SYTOX green (0.5 μM) (Molecular Probes, Invitrogen, or Thermo Fisher Scientific). Cells were transferred onto an agarose pad containing 1.2% agarose and 20% LB medium for microscopy. Microscopy was performed as previously described ([34])."}, "[3]": {"tested_on": "A. baumannii strain ATCC 17978", "test": "Fluorescence microscopy, cellular morphology", "assay_type": "cell-based, Acinetobacter baumannii", "settings": "xeruborbactam, meropenem 1× and 2× MIC; aztreonam 2× MIC; amdinocillin 2 μg/mL", "description": "as §2"}, "[4]": {"tested_on": "Klebsiella pneumoniae", "test": "microbe, parasite or virus in culture", "assay_type": "cell-based", "outline": "as §1"}, "[5]": {"tested_on": "Acinetobacter baumannii", "test": "Broth microdilution MIC (CLSI), Acinetobacter baumannii", "assay_type": "cell-based", "settings": "Acinetobacter baumannii, read-out: MIC", "outline": "as §1"}}, "note": "Like-named read-outs stand apart in the source and are kept apart here.", "data": [{"molecule": "CC1(C)S[C@@H]2[C@H](/N=C/N3CCCCCC3)C(=O)N2[C@H]1C(=O)O", "note": "[Mecillinam]", "values": [{"measurement": "MIC", "setting": "[1]", "value": 128, "unit": "µg/mL"}, {"measurement": "cellular morphology", "setting": "[2]", "value": "cell rounding"}, {"measurement": "cellular morphology", "setting": "[3]", "value": "bacterial cell rounding but not swelling"}, {"measurement": "MIC", "setting": "[4]; KPM1026a (no beta-lactamase), xeruborbactam 0 µg/ml", "value": 0.25, "unit": "µg/mL"}, {"measurement": "MIC", "setting": "[4]; KPM1026a, xeruborbactam 2 µg/ml", "value": 0.25, "unit": "µg/mL"}, {"measurement": "MIC", "setting": "[4]; KPM1026a, xeruborbactam 4 µg/ml", "value": 0.125, "unit": "µg/mL"}, {"measurement": "MIC", "setting": "[4]; KPM1026a, xeruborbactam 8 µg/ml", "value": 0.06, "unit": "µg/mL"}, {"measurement": "MIC", "setting": "[4]; Klebsiella pneumoniae, KPM1026a, alone, read-out: MIC", "value": 0.25, "unit": "µg/mL"}, {"measurement": "MIC", "setting": "[4]; Klebsiella pneumoniae, KPM1026a, parent, read-out: MIC", "value": 0.25, "unit": "µg/mL"}, {"measurement": "MIC", "setting": "[4]; Klebsiella pneumoniae, KPM3532 (TolQ::M189K), alone", "value": "> 64", "unit": "µg/mL"}, {"measurement": "MIC", "setting": "[4]; Klebsiella pneumoniae, KPM3532, TolQ::M189K", "value": "> 64", "unit": "µg/mL"}, {"measurement": "MIC", "setting": "[4]; Klebsiella pneumoniae, KPM3534 (TolQ::S31F), alone", "value": "> 64", "unit": "µg/mL"}, {"measurement": "MIC", "setting": "[4]; Klebsiella pneumoniae, KPM3534, TolQ::S31F", "value": "> 64", "unit": "µg/mL"}, {"measurement": "MIC", "setting": "[4]; Klebsiella pneumoniae, KPM4235, TolQ::IP(183–1844)PR", "value": "> 64", "unit": "µg/mL"}, {"measurement": "MIC", "setting": "[4]; Klebsiella pneumoniae, KPM4236, TolQ::TAA at aa 103", "value": "> 64", "unit": "µg/mL"}, {"measurement": "MIC", "setting": "[4]; Klebsiella pneumoniae, KPM4238, TolQ::S25F", "value": "> 64", "unit": "µg/mL"}, {"measurement": "MIC", "setting": "[4]; Klebsiella pneumoniae, KPM4239, TolQ::S28F", "value": "> 64", "unit": "µg/mL"}, {"measurement": "MIC", "setting": "[4]; Klebsiella pneumoniae, KPM4240, TolQ::S25Y", "value": "> 64", "unit": "µg/mL"}, {"measurement": "MIC", "setting": "[4]; Klebsiella pneumoniae, strain KPM1026a measured at 30°C (Fig. 6), read-out: MIC", "value": 128, "unit": "µg/mL"}, {"measurement": "MIC", "setting": "[5]; ATCC17978, strain ATCC 17978 (Fig. 6)", "value": 128, "unit": "µg/mL"}, {"measurement": "MIC", "setting": "[5]; ATCC17978, strain ATCC 17978", "value": "> 256", "unit": "µg/mL"}]}]}
